# How the values were obtained:
# [1] = tested on: platelet reactivity; test: Platelet reactivity by Multiplate (multiple electrode aggregometry) after ticagrelor loading dose; type: in vivo, human (patients with myocardial infarction); conditions: median [interquartile range]; for time to achieve platelet inhibition below the cut-off value for HPR (Multiplate): HPR = AUC >46 U
# Method: (§1) Consecutive STEMI and NSTEMI patients admitted to the study site (Cardiology Department, Dr. A. Jurasz University Hospital, Bydgoszcz, Poland) were screened for eligibility. After admission to the study centre, confirmation of the initial diagnosis of STEMI or NSTEMI, and provision of a written informed consent to participate in the trial, all study participants received an oral 300 mg LD of plain aspirin (Polpharma SA, Starogard Gdański, Poland) and 180 mg LD ticagrelor in integral tablets with 250 mL tap water. Subsequently, within 15 minutes of ticagrelor LD, all patients underwent coronary angiography followed by PCI as required. During the periprocedural period, all study participants received unfractionated heparin in body weight adjusted dose according to the European Society of Cardiology (ESC) recommendations. Plasma concentrations of ticagrelor and its active metabolite, as well as their antiplatelet effect, were evaluated according to the sampling schedule employed at our centre in previous PK/PD study (pre-treatment, 0.5 h, 1 h, 2 h, 3 h, 4 h, 6 h and 12 h post ticagrelor LD).
# (§2) Blood samples for PK/PD evaluation were obtained from an 18-gauge cannula inserted into one of the forearm veins. The first 5 mL blood was discarded to avoid spontaneous platelet activation. In each patient specimens were collected at the eight pre-defined time. Detailed description of blood sample processing has been published in the study protocol (S1 File).
# (§3) Platelet reactivity was assessed using VASP and Multiplate. The VASP assay (Biocytex, Inc., Marseille, France) was used in all study participants, while Multiplate (Roche Diagnostics International Ltd., Rotkreuz, Switzerland) was used in all except in those treated with glycoprotein (GP) IIb/IIIa receptor inhibitors. Pharmacodynamic evaluation was performed according to the manufacturers' instructions. HPR was defined as platelet reactivity index >50% for the VASP assay and AUC >46 units (U) for Multiplate. […]
# (§4) Table 1 Inclusion and exclusion criteria of the PINPOINT study
# (§5) Inclusion criteria Exclusion criteria
# (§6) ▸ Provision of informed consent prior to any ▸ Treatment with ticlopidine, clopidogrel, prasugrel or ticagrelor within study-specific procedure 14 days before the study enrolment
# (§7) ▸ Diagnosis of STEMI or NSTEMI ▸ Hypersensitivity to ticagrelor
# (§8) ▸ Men or non-pregnant women ▸ Current treatment with oral anticoagulant or chronic therapy with low-molecular-weight heparin
# (§9) ▸ Provision of informed consent for angiography ▸ Active bleeding […]
# (§10) ▸ History of intracranial haemorrhage
# (§11) ▸ Fibrinolytic treatment during the index event
# (§12) ▸ Recent gastrointestinal bleeding (within 30 days)
# (§13) ▸ History of coagulation disorders
# (§14) ▸ History of moderate or severe hepatic impairment
# (§15) ▸ History of major surgery or severe trauma (within 3 months)
# (§16) ▸ Second or third degree atrioventricular block during screening for […]
# (§17) ▸ Patient requiring dialysis
# (§18) ▸ Manifest infection or inflammatory state
# (§19) ▸ Killip class III or IV during screening for eligibility
# (§20) ▸ Current therapy with strong CYP3A inhibitors or strong CYP3A […]
# (§21) NSTEMI, non-ST-elevation myocardial infarction; PCI, percutaneous coronary intervention; STEMI, ST-elevation myocardial infarction. […]
# MEA (Roche Diagnostics International, Rotkreuz, staff and the attending physician. The type of implanted Switzerland) will be used at all predeﬁned time points stent and choice of the access site for coronary invasive ( ﬁgure 1) for all study participants with the exception of procedure (radial or femoral ) will be at the discretion of those treated with glycoprotein IIb/IIIa (GP IIb/IIIa) the operator. During the periprocedural period, all study receptor inhibitors as this therapy may affect the results participants will receive unfractionated heparin in body of platelet reactivity assessment per formed with MEA weight adjusted dose according to the ESC recommenda-( ﬁgure 2). Pharmacodynamic assessment with VASP and tions.2336Administration of GP IIb/IIIa receptor in- […]
# [2] = tested on: platelet reactivity; test: Platelet reactivity by the VASP assay after ticagrelor loading dose; type: in vivo, human (patients with myocardial infarction); conditions: median [interquartile range]; for time to achieve platelet inhibition below the cut-off value for HPR (VASP): HPR = platelet reactivity index >50%
# Method: as §1, §2, §3, §4, §5, §6, §7, §8, §9, §10, §11, §12, §13, §14, §15, §16, §17, §18, §19, §20, §21
# Assessment of pharmacodynamics ticagrelor, β-blockers, statins and ACE inhibitors or angio-Platelet VASP assay (Biocytex, Marseille, France) will be tensin II receptor blockers, if not contraindicated. applied to all study participants at all predeﬁned time Morphine will be used at the discretion of the ambulance points. MEA (Roche Diagnostics International, Rotkreuz, staff and the attending physician. The type of implanted Switzerland) will be used at all predeﬁned time points stent and choice of the access site for coronary invasive ( ﬁgure 1) for all study participants with the exception of procedure (radial or femoral ) will be at the discretion of those treated with glycoprotein IIb/IIIa (GP IIb/IIIa) the operator. During the periprocedural period, all study […]
# [3] = NSTEMI, 0.5 h after 180 mg ticagrelor LD
# [4] = STEMI, 0.5 h after 180 mg ticagrelor LD
compound,measurement,setting,value
CCCSc1nc(N[C@@H]2C[C@H]2c2ccc(F)c(F)c2)c2nnn([C@@H]3C[C@H](OCCO)[C@@H](O)[C@H]3O)c2n1 [ticagrelor],Platelet reactivity (Multiplate),[1]; [3],49.0 [21.0–86.0] U
same,Platelet reactivity (Multiplate),"[1]; NSTEMI, 2 h after 180 mg ticagrelor LD",18.0 [10.0–31.0] U
same,time to achieve platelet inhibition below the cut-off value for HPR (Multiplate),[1]; NSTEMI,0.5 [0.5–2.0] h
same,Platelet reactivity (Multiplate),[1]; [4],88.0 [51.5–103.5] U
same,Platelet reactivity (Multiplate),"[1]; STEMI, 2 h after 180 mg ticagrelor LD",36.0 [22.0–52.5] U
same,time to achieve platelet inhibition below the cut-off value for HPR (Multiplate),[1]; STEMI,2.0 [0.5–3.0] h
same,Platelet reactivity (VASP),[2]; [3],57.0 [30.2–89.4] %
same,Platelet reactivity (VASP),"[2]; NSTEMI, 1 h after 180 mg ticagrelor LD",40.8 [23.7–69.2] %
same,Platelet reactivity (VASP),"[2]; NSTEMI, 3 h after 180 mg ticagrelor LD",32.2 [14.7–38.7] %
same,Platelet reactivity (VASP),"[2]; NSTEMI, 4 h after 180 mg ticagrelor LD",21.1 [17.5–43.1] %
same,time to achieve platelet inhibition below the cut-off value for HPR (VASP),[2]; NSTEMI,1.0 [0.5–2.0] h
same,Platelet reactivity (VASP),[2]; [4],83.1 [74.5–87.8] %
same,Platelet reactivity (VASP),"[2]; STEMI, 1 h after 180 mg ticagrelor LD",80.7 [40.4–90.5] %
same,Platelet reactivity (VASP),"[2]; STEMI, 3 h after 180 mg ticagrelor LD",45.0 [26.4–80.9] %
same,Platelet reactivity (VASP),"[2]; STEMI, 4 h after 180 mg ticagrelor LD",36.5 [22.2–69.7] %
same,time to achieve platelet inhibition below the cut-off value for HPR (VASP),[2]; STEMI,2.5 [1.0–6.0] h

# From article PMC5638327, “Comparison of bioavailability and antiplatelet action of ticagrelor in patients with ST-elevation myocardial infarction and non-ST-elevation myocardial infarction: A prospective, observational, single-centre study” (PLoS ONE, 2017)
